Usually IC50 stands for the point on the concentration scale where inhibition reaches its midpoint.

Active and inactive are the calls of the source. How the calls were made is not given here. Bounds are passed on as bounds.

These results are taken from PubChem BioAssay AID1159564 (GlaxoSmithKline (GSK), 2015).

This assay has as its system L. donovani-infected THP-1 macrophages, intracellular amastigote imaging. As to the kind of experiment: antileishmanial activity in infected THP-1 macrophages – imaging, THP-1 host macrophages, host toxicity (AID 1159564).
Setting [1] is: measured here: THP-1 host cell toxicity.
Where [2] appears, read: measured here: amastigotes per macrophage.

For the molecule `O=C(NCCc1cccnc1)c1ccc(-c2ccccc2F)o1`, the IC50 was > 50 µM (inactive). The molecule further registered a half-inhibitory concentration (IC50) under setting [1] greater than 50 µM. Moreover, the IC50 under setting [2] was greater than 50 µM.
In the case of `COc1ccc(-c2csc(NC(=O)c3ccc([N+](=O)[O-])s3)n2)cc1OC`, the IC50 was 1.3 µM. In addition, under setting [1], the IC50 came out at 32 µM. The molecule further returned a concentration for half-maximal inhibition (IC50) under setting [2] of 1.3 µM.
Turning to `CC(CNS(=O)(=O)c1ccc(OC(F)F)cc1)c1ccc(NC(=O)c2ccncc2)cc1` (centres undefined), the IC50 is > 50 µM (inactive). For the same molecule, the IC50 under setting [1] came out at 16 µM. The same molecule displayed an IC50 under setting [2] of 5 µM.
Taken in the same sequence, the figures for `CN(Cc1ccc(C(N)=O)cc1)C(c1ccc(F)cc1)c1cccnc1` (centres undefined) were > 50 µM (inactive), greater than 50 µM and greater than 50 µM.
On the same counts, the results for `Nc1ncnc2c1ncn2[C@@H]1O[C@H](CO)C[C@H]1O` are > 50 µM (inactive), greater than 50 µM and greater than 50 µM.
Taken in the same sequence, the figures for `C=CCn1nc([N+](=O)[O-])nc1Oc1ccc(Cl)cc1Cl` were > 50 µM (inactive), 40 µM and 40 µM.
In the case of `c1ccc(-c2nc(NCc3ccco3)c3ccccc3n2)nc1`, the IC50 was 2.5 µM. Further, under setting [1], the IC50 is 32 µM. The molecule also registered an IC50 under setting [2] of 2.5 µM.
As to `COc1ccc(Nc2nc(NC3CCC(O)CC3)ncc2Br)c(C(N)=O)c1` (centres undefined), the IC50 was 1 µM. This molecule also returned an IC50 under setting [1] of 0.4 µM. Besides, the IC50 under setting [2] is 0.63 µM.
Taken in the same sequence, the figures for `COc1cccc(S(=O)(=O)Nc2ccc3c(c2)CC(N2CCC(NC(=O)C4CC4)CC2)C3)c1` (centres undefined) were > 50 µM (inactive), greater than 50 µM and 25 µM.
Taken in the same sequence, the figures for `O=C(c1cnn(-c2ccccc2)n1)N1CCCC(n2ccnc2)C1` (centres undefined) were > 50 µM (inactive), greater than 50 µM and 0.63 µM.
In the case of `CCN(C)Cc1ccc(N2CCC(NS(=O)(=O)c3ccc4c(c3)CCO4)CC2)nc1`, the IC50 was > 50 µM (inactive). The molecule also had an IC50 under setting [1] greater than 50 µM.
As to `Cc1cc(C)n(-c2nc(NC(C)(C)C)nc(N3CCOCC3)n2)n1`, the IC50 is 7.9 µM. In addition, the IC50 under setting [1] is greater than 50 µM. The molecule also came in with an IC50 under setting [2] of 4 µM.
On the same counts, the results for `CCCc1cc(N)nc(-c2cc(CCC)cc(N)n2)c1` are 2.5 µM, 20 µM and 1.6 µM.
Regarding `Cn1ccnc1-c1nc(NCc2ccccc2Cl)cc(C2CC2)n1`, the IC50 was 0.63 µM. The molecule further displayed an IC50 under setting [1] of 7.9 µM. The IC50 under setting [2] came to 0.2 µM.
Taken in the same sequence, the figures for `Cc1cc(C#N)c([N+](=O)[O-])cc1Br` were 40 µM, 25 µM and 32 µM.
On to `COc1ccc(-c2cc(C)no2)cc1S(=O)(=O)Nc1ccc(F)c(Cl)c1`, for which the IC50 was 25 µM. Under setting [1], this molecule yielded an IC50 of 32 µM. The molecule also showed an IC50 under setting [2] of 20 µM.
On to `CC(C)Oc1cccc(N2CCC(C(=O)N3CCCN(C(C)C)CC3)CC2)c1`, for which the IC50 was > 50 µM (inactive). The molecule further yielded an IC50 under setting [1] greater than 50 µM. Under setting [2], this molecule returned an IC50 greater than 50 µM.
`CN(Cc1nc2c(C(=O)N3CCN(Cc4ccccc4)CC3)cccc2[nH]1)C1CCCc2cccnc21` (centres undefined): the IC50 is 1.3 µM. Under setting [1], this molecule showed an IC50 of 10 µM. The molecule also displayed an IC50 under setting [2] of 0.79 µM.
On the same counts, the results for `CCCn1c(NC(=O)CCn2cc(Br)cn2)nc2ccccc21` are 10 µM, greater than 50 µM and 5 µM.
Taken in the same sequence, the figures for `O=C(Cc1ccccc1)Nc1ccccc1C(=O)Nc1nccs1` were > 50 µM (inactive), greater than 50 µM and greater than 50 µM.
Taken in the same sequence, the figures for `O=C(CN(Cc1ccccn1)Cc1ccccn1)NCc1csc(-c2cccs2)n1` were 6.3 µM, greater than 50 µM and 3.2 µM.
Take `NCC(Cc1ccccc1)NC(=O)c1cnc(-c2c[nH]c3ncccc23)s1` (centres undefined): the IC50 is 16 µM. In addition, the IC50 under setting [1] is 6.3 µM. Under setting [2], this molecule came in with an IC50 of 13 µM.
Taken in the same sequence, the figures for `COc1ccc(C2=NCC(CSc3nnc(-c4ccc5c(c4)OCO5)o3)S2)cc1` (centres undefined) were 1 µM, greater than 50 µM and 0.4 µM.
As to `O=c1ccc2ccc(F)c3c2n1C[C@H]3CN1CCC(NCc2cc3ccccc3o2)CC1`, the IC50 was 20 µM. Under setting [1], this molecule displayed an IC50 of 32 µM. Also, the IC50 under setting [2] came to 13 µM.
On the same counts, the results for `O=c1oc2ccccc2n1C1CCN(Cc2ccccc2-c2cccnc2)CC1` are > 50 µM (inactive), 13 µM and 6.3 µM.
Taken in the same sequence, the figures for `Cc1cccnc1CN1CCN(CCCOc2ccc(-c3ccc(C(N)=O)cc3)cc2)CC1` were 32 µM, 13 µM and 10 µM.
On the same counts, the results for `NC(=O)c1cc(F)ccc1Nc1nc(NC2CCC(O)CC2)ncc1Br` (centres undefined) are 0.79 µM, 0.4 µM and 0.63 µM.
In the case of `COc1ccc2ncc(Cl)c(CCN3CC[C@H](NCc4cc5c(cn4)OCS5)[C@@H](O)C3)c2n1`, the IC50 is 1 µM. For the same molecule, the IC50 under setting [1] was found to be 6.3 µM. This molecule also registered an IC50 under setting [2] of 0.5 µM.
Taken in the same sequence, the figures for `CCOC(=O)c1cn[nH]c1S(=O)(=O)N1CCC1c1ccccc1` (centres undefined) were > 50 µM (inactive), greater than 50 µM and greater than 50 µM.
Taken in the same sequence, the figures for `Cc1ccc(C)c(-n2nnnc2Sc2nc([N+](=O)[O-])nn2C)c1` were > 50 µM (inactive), greater than 50 µM and greater than 50 µM.
On the same counts, the results for `O=C(CN1CCN(S(=O)(=O)c2cccc([N+](=O)[O-])c2)CC1)Nc1ccc(Oc2ccccc2)cc1` are 7.9 µM, greater than 50 µM and 2 µM.
On to `CC(C)S(=O)(=O)c1ccc(-c2cnc(N)c3cc(-c4ccnc(N)n4)ccc23)cc1`, for which the IC50 is 1.3 µM. The IC50 under setting [1] stood at 2.5 µM. The IC50 under setting [2] is 0.5 µM.
On the same counts, the results for `Fc1ccc(Nc2nc(-c3ccccn3)cs2)cc1` are 10 µM, greater than 50 µM and 6.3 µM.
Taken in the same sequence, the figures for `COCCn1c(-c2ccccc2)cnc1NCc1ccccc1OC` were 6.3 µM, 50 µM and 6.3 µM.
On the same counts, the results for `COc1ccnc2[nH]cc(-c3cc(C(=O)N[C@H](CO)c4ccccc4)co3)c12` are 7.9 µM, 0.79 µM and 2 µM.
`Clc1ccc(Sc2cnccc2N2CCOCC2)cc1`: the IC50 is > 50 µM (inactive). The half-maximal inhibitory concentration (IC50) under setting [1] was greater than 50 µM. Besides, the IC50 under setting [2] is 10 µM.
On the same counts, the results for `Cc1cc(Br)cc(C(=O)c2c(C(C)C)c(=O)[nH]c(=O)n2Cc2ccnc(N)c2)c1` are 32 µM, 40 µM and 20 µM.
Taken in the same sequence, the figures for `CCn1c(-c2nonc2N)nc2c([C@@H](C)O)ncc(O[C@H](CN)c3ccccc3)c21` were 5 µM, 3.2 µM and 3.2 µM.
On to `CCN(Cc1cccs1)C(=O)CSc1nnc(-c2ccc3c(c2)OCO3)o1`, for which the IC50 is 2 µM. The same molecule registered an IC50 under setting [1] greater than 50 µM. The molecule further gave an IC50 under setting [2] of 2 µM.
For `Cc1cc(Nc2cc(C3CC3)[nH]n2)nc(N2CCCC2)n1`, the IC50 is 0.16 µM. In addition, the IC50 under setting [1] turned out to be 0.13 µM. Moreover, under setting [2], the IC50 stood at 0.05 µM.
On the same counts, the results for `CNc1nc(C)nc(N2CCc3cc(C(=O)NCc4ccc(-c5nccn5C)cc4Cl)ccc32)n1` are 0.79 µM, 25 µM and 0.79 µM.
Taken in the same sequence, the figures for `CNC(=O)C1Cc2ccccc2N1C(=O)Cc1ccc(OC)cc1` (centres undefined) were 7.9 µM, 7.9 µM and 13 µM.
Taken in the same sequence, the figures for `COc1cnc2ccc(=O)n(CCN3CCC(NC(=O)Cc4ccc(Cl)c(Cl)c4)CC3)c2c1` were 40 µM, 25 µM and 5 µM.
For `Cc1sc(C)c(C(F)(F)F)c1CNCCCNc1cc(=O)c2ccccc2[nH]1`, the IC50 was 50 µM. The IC50 under setting [1] amounted to 32 µM. Besides, the IC50 under setting [2] stood at 25 µM.
Taken in the same sequence, the figures for `COc1ccc(C)cc1-c1csc(NC(=O)C(C)n2ccnc2)n1` (centres undefined) were > 50 µM (inactive), greater than 50 µM and greater than 50 µM.
On the same counts, the results for `Nc1nc(-c2ccccc2)cc(-c2nc3ncccc3[nH]2)n1` are 2.5 µM, greater than 50 µM and 2.5 µM.
Regarding `O=C(Cc1ccc2c(c1)CCC2)Nc1n[nH]c(-c2ccccn2)n1`, the IC50 was 6.3 µM. In addition, the IC50 under setting [1] was greater than 50 µM. Under setting [2], the IC50 amounted to 6.3 µM.
For `CCN(Cc1nc2ccc(C(=O)N3CCN(c4ncccn4)CC3)cc2[nH]1)C1CCCc2cccnc21` (centres undefined), the IC50 is 4 µM. The IC50 under setting [1] was found to be 20 µM. Under setting [2], this molecule came in with an IC50 of 1.6 µM.
Taken in the same sequence, the figures for `COc1ccc(-c2cnc(NC(=O)c3cc(-c4ccccn4)n[nH]3)n2C)cc1` were 1 µM, greater than 50 µM and 0.79 µM.
For `CN(C)c1ccc(-c2cc3nccnc3c(OC[C@H]3CCCNC3)n2)cn1`, the IC50 was 20 µM. This molecule also showed an IC50 under setting [1] of 20 µM. Also, the IC50 under setting [2] was determined as 25 µM.
In the case of `CC(c1cc(Cl)cc(Cl)c1)N(C)c1ncc2c(N)nc(N)nc2n1` (centres undefined), the IC50 is 0.79 µM. The IC50 under setting [1] was found to be 32 µM. This molecule yielded an IC50 under setting [2] of 0.25 µM.
On the same counts, the results for `CN(C)S(=O)(=O)c1cccc(C(=O)Nc2nc(-c3ccccn3)cs2)c1` are 6.3 µM, 7.9 µM and 2.5 µM.
On the same counts, the results for `O=C(Nc1ccc(C(F)(F)F)cc1)Nc1cccc([N+](=O)[O-])c1` are 2.5 µM, 6.3 µM and 2 µM.
On the same counts, the results for `NC(=O)c1cc(F)ccc1Nc1nc(NC2CCC(O)CC2)ncc1Cl` (centres undefined) are 1.3 µM, 0.63 µM and 0.79 µM.
Take `Cc1ccc(NC(=O)C(C)n2nc([N+](=O)[O-])c(Br)c2C)cc1Cl` (centres undefined): the IC50 was > 50 µM (inactive). Further, the IC50 under setting [1] was greater than 50 µM. For the same molecule, the IC50 under setting [2] is greater than 50 µM.
